# Experimental data: the NIST ThermoML archive (doi:10.1021/acs.jced.8b00554)
# ± gives the expanded uncertainty stated by the source.
# Assay: xn = mol fraction of the nth substance listed
# Details: 343.15 K, Liquid, Vibrating tube method
smiles,measurement,setting,value
CCCCCCCC [octane] + CCCO,mass density,"7020 kPa, x2 = 0.3158",681.12 ± 4.4 kg/m3
same,mass density,"8000 kPa, x2 = 0.2111",676.71 ± 4.3 kg/m3
same,mass density,"8000 kPa, x2 = 0.3158",682.22 ± 4.4 kg/m3
same,mass density,"8000 kPa, x2 = 0.8823",743 ± 4.8 kg/m3
same,mass density,"8010 kPa, x2 = 0.1631",674.54 ± 4.3 kg/m3
same,mass density,"8010 kPa, x2 = 0.4411",690.61 ± 4.4 kg/m3
same,mass density,"8020 kPa, x2 = 0.7301",719.22 ± 4.6 kg/m3
same,mass density,"9000 kPa, x2 = 0.1631",675.63 ± 4.3 kg/m3
same,mass density,"9000 kPa, x2 = 0.4411",691.72 ± 4.4 kg/m3
same,mass density,"9000 kPa, x2 = 0.7301",720.31 ± 4.6 kg/m3
same,mass density,"9010 kPa, x2 = 0.2111",677.8 ± 4.3 kg/m3
same,mass density,"9010 kPa, x2 = 0.3158",683.34 ± 4.4 kg/m3
same,mass density,"9010 kPa, x2 = 0.8823",744.04 ± 4.8 kg/m3
same,mass density,"10010 kPa, x2 = 0.2111",678.85 ± 4.3 kg/m3
same,mass density,"10010 kPa, x2 = 0.3158",684.4 ± 4.4 kg/m3
same,mass density,"10010 kPa, x2 = 0.4411",692.81 ± 4.4 kg/m3
same,mass density,"10010 kPa, x2 = 0.8823",745.05 ± 4.8 kg/m3
same,mass density,"10020 kPa, x2 = 0.1631",676.71 ± 4.3 kg/m3
same,mass density,"10020 kPa, x2 = 0.7301",721.36 ± 4.6 kg/m3
same,mass density,"11000 kPa, x2 = 0.4411",693.87 ± 4.5 kg/m3
same,mass density,"11010 kPa, x2 = 0.2111",679.93 ± 4.4 kg/m3
same,mass density,"11010 kPa, x2 = 0.3158",685.49 ± 4.4 kg/m3
same,mass density,"11020 kPa, x2 = 0.1631",677.8 ± 4.3 kg/m3
same,mass density,"11020 kPa, x2 = 0.7301",722.39 ± 4.6 kg/m3
same,mass density,"11020 kPa, x2 = 0.8823",746.05 ± 4.8 kg/m3
same,mass density,"12000 kPa, x2 = 0.3158",686.55 ± 4.4 kg/m3
same,mass density,"12010 kPa, x2 = 0.2111",681 ± 4.4 kg/m3
same,mass density,"12010 kPa, x2 = 0.7301",723.42 ± 4.6 kg/m3
same,mass density,"12010 kPa, x2 = 0.8823",747.05 ± 4.8 kg/m3
same,mass density,"12020 kPa, x2 = 0.1631",678.83 ± 4.3 kg/m3
same,mass density,"12020 kPa, x2 = 0.4411",694.93 ± 4.5 kg/m3
same,mass density,"13000 kPa, x2 = 0.2111",682.04 ± 4.4 kg/m3
same,mass density,"13010 kPa, x2 = 0.3158",687.6 ± 4.4 kg/m3
same,mass density,"13010 kPa, x2 = 0.4411",695.99 ± 4.5 kg/m3
same,mass density,"13010 kPa, x2 = 0.8823",748.05 ± 4.8 kg/m3
same,mass density,"13020 kPa, x2 = 0.1631",679.88 ± 4.4 kg/m3
same,mass density,"13020 kPa, x2 = 0.7301",724.48 ± 4.6 kg/m3
same,mass density,"14000 kPa, x2 = 0.2111",683.07 ± 4.4 kg/m3
same,mass density,"14000 kPa, x2 = 0.7301",725.49 ± 4.7 kg/m3
same,mass density,"14000 kPa, x2 = 0.8823",749.02 ± 4.8 kg/m3
same,mass density,"14010 kPa, x2 = 0.1631",680.88 ± 4.4 kg/m3
same,mass density,"14010 kPa, x2 = 0.4411",697.01 ± 4.5 kg/m3
same,mass density,"14020 kPa, x2 = 0.3158",688.64 ± 4.4 kg/m3
same,mass density,"15000 kPa, x2 = 0.2111",684.09 ± 4.4 kg/m3
same,mass density,"15000 kPa, x2 = 0.8823",749.96 ± 4.8 kg/m3
same,mass density,"15010 kPa, x2 = 0.1631",681.89 ± 4.4 kg/m3
same,mass density,"15010 kPa, x2 = 0.3158",689.64 ± 4.4 kg/m3
